Source: US20140017673A1, “METHOD FOR ENUMERATING EUKARYOTIC CELL MICRONUCLEI WITH AN EMPHASIS ON SIMULTANEOUSLY ACQUIRING CYTOTOXICITY AND MODE OF ACTION INFORMATION” (priority 2012, published 2014)

Tested on: TK6 cells
Assay: Treatment with demecolcine and assessment of anti-H3-P performance (metaphase events by flow cytometry)
Format: cell-based, human
Details: 0.05 ng/ml, 5 hours
Description: TK6 cells were treated with 0 or 0.05 ng demecolcine/ml in T25 tissue culture flasks. At the start of treatment, cells were at 5×10^5/ml in a volume of 20 ml per flask. Flasks were incubated at 37° C., 5% CO2, and in a humid atmosphere. After 5 hours, flasks were removed and 1 ml aliquots were placed in to 15 ml centrifuge tubes. Cells were collected via centrifugation, and supernatants aspirated such that approximately 25 μl of supernatant remained per tube. Cells were gently resuspended with tapping. 300 μl “Lysis Solution 1” was added slowly to each tube (approximately 5 seconds per sample). […]
Samples were gently pipetted to resuspend the particles. […] SYTOX®-associated fluorescence emission was collected in the FITC channel, EMA-associated fluorescence was collected in the PerCP-Cy5 channel, and anti-H3-P-Alexa 647 associated fluorescence was collected in the APC channel. Events were triggered on FITC fluorescence. The flow cytometry gating strategy that was developed for this scoring application required events to meet each of several separate criteria before they were scored as nuclei, MN, chromatin debris, or metaphase chromosomes. […]
In this experiment, TK6 cells were treated with 0 or 0.05 ng/ml demecolcine, a metaphase blocking agent. […] However, the anti-H3-P associated fluorescence signal is able to differentiate between G2 and metaphase chromosomes. […]

CN[C@H]1CCc2cc(OC)c(OC)c(OC)c2-c2ccc(OC)c(=O)cc21 [demecolcine, Demecolcine]
frequency of 4n anti-H3-P-positive events, FIG. 2: greatly increased
